Patent US20220193039A1, “APPLICATION OF 2,4,5-TRISUBSTITUTED 1,2,4-TRIAZOLONES IN ANTIVIRAL THERAPY” (priority 2020, published 2022)
Read-outs that look alike come from different tables or passages of the source.

Key:
Assay type in all cases: cell-based
[1] = tested on: SARS-CoV-2 (nCoV-2019BetaCoV/Wuhan/WIV04/2019 strain); assay: microbe, parasite or virus in culture; settings: for inhibition of viral RNA load in the cells: Vero E6, dose-dependent; for EC50: Severe acute respiratory syndrome coronavirus 2, Vero C1008, Vero E6 cells, viral RNA copy number, read-out: EC50 against SARS-CoV-2
[2] = Cytotoxicity test of drug, CCK-8 kit; settings: African green monkey; Vero E6 cells; CCK-8; 48 hours
Experimental: (§1) (5) Cytotoxicity test of drug
(§2) The detection of the drug cytotoxicity was performed using CCK-8 kit (Beoytime). Specific steps were as follows:
(§3) 1) 1×104 Vero E6 (ATCC) cells were placed in a 96-well plate and incubated at 37° C. for 8 hours.
(§4) 2) The drug was diluted with DMSO to an appropriate concentration of mother liquor, and then diluted with MEM medium (purchased from Gibco, Catalog No. 10370021) containing 2% FBS (purchased from Gibco, Catalog No. 16000044) to the same concentration as that for the drug treatment. The original medium in the 96-well plate was discarded, 100 μL of drug-containing MEM medium was added to the cells, and three replicate wells were prepared for each concentration. Vehicle control (DMSO and medium were added to the cell wells, without adding drug) and blank control (DMSO and medium were added to the wells, without cells) were set up. After the drug was added, the cells were cultured at 37° C. for 48 hours.
(§5) 3) 20 μL of CCK-8 solution (Beoytime) was added to the well to be tested, mixed gently, without generating bubbles, and continuously incubated at 37° C. for 2 hours. OD450 was read on a microplate reader (purchased from Molecular Devices, Model:SpectraMax M5), and cell viability was calculated:
(§6) Cell activity(%)=(A(drug treatment group)−A(blank control))/(A(vehicle control)−A(blank control))×100%
(§7) wherein A was the reading of the microplate reader.

Vero E6 cells = assay: Cytotoxicity test of drug, CCK-8 kit; settings: at below 10 μM, FIG. 1
Experimental: as §1, §2, §3, §4, §5, §6, §7

influenza virus A/PR/8 = assay: microbe, parasite or virus in culture; settings: unidentified influenza virus, MDCK, 72 h, read-out: EC50 influenza virus A/PR/8 (PR8-MDCK)
[3] = tested on: influenza virus A/California/07/2009; assay: microbe, parasite or virus in culture; settings: unidentified influenza virus, MDCK, 72 h, read-out: EC50 influenza virus A/California/07/2009 (CA07-MDCK)
[4] = tested on: influenza virus A/Hongkong/08/1968; assay: microbe, parasite or virus in culture; settings: unidentified influenza virus, MDCK, 72 h, read-out: EC50 influenza virus A/Hongkong/08/1968 (HK68-MDCK)
[5] = tested on: influenza virus A/Zhenxing1109/2010; assay: microbe, parasite or virus in culture; settings: unidentified influenza virus, MDCK, 72 h, read-out: EC50 influenza virus A/Zhenxing1109/2010 (ZX1109-MDCK)
influenza virus B/Lee/40 = assay: microbe, parasite or virus in culture; settings: unidentified influenza virus, MDCK, 72 h, read-out: EC50 influenza virus B/Lee/40 (Blee-MDCK)
[6] = Cytotoxicity test of the drug on MDCK (CellTiter-Glo); settings: dog, MDCK cells
Experimental: (2) Cytotoxicity test of the drug
1) MDCK cell (purchased from ATCC, Catalog:CCL-34) was inoculated into a 96-well plate at a concentration of 1.5×10^4 cell/well, wherein the medium is DMEM (purchased from Gibco, Catalog No.: 11995065) containing 10% FBS (purchased from Gibco, Catalog No.: 16000044), and cultured for 24 hrs at 37° C. in a CO2 incubator.
2) Before the experiment, the cells were wahsed 3 times with PBS (purchased from Gibco, Catalog No.: 10010049), 150 μL of D/F-12 medium (purchased from Gibco, Catalog No.: 11330032) containing 2 μg/mL TPCK (purchased from Sigma, Catalog No.:T1426) was added. […]
(§8) 3) Buffer and substrate of CellTiter-Glo® Luminescent Cell Viability Assay Kit (purchased from Promega, Catalog No.:G7573) were mixed in dark as the work solution. […] After stabilizing the signal in dark for 5 min, chemiluminescence was determined by an enzyme-labeled instrument (purchased from Molecular Devices, SpectraMax M5), the plate reading program was the CellTiter-Glo preset program, and the cytotoxicity was calculated: […]
(§9) wherein A was the reads from the enzyme-labeled instrument.

[7] = tested on: zika virus strain SZ-SMGC-01; assay: Anti-zika virus activity in BHK or Vero cells (CellTiter-Glo); settings: preliminary test results
Experimental: (1) Evaluation of anti-zika virus activity of the drug
1) BHK cells (preserved in Academy of Military Medical Sciences) or Vero cells (preserved in Academy of Military Medical Sciences) were inoculated into a 96 wells plate at a concentration of 5×10^3 cells/well for BHK cells and 1×10^4 cells/well for Vero cells, wherein the medium is DMEM (purchased from Gibco, Catalog No.: 11995065) containing 10% FBS (purchased from Gibco, Catalog No.: 16000044), and cultured for 24 hrs at 37° C. in a CO2 incubator.
(§10) 2) The culture medium in the 96-well plate was discarded, 100 μL of DMEM medium (purchased from Gibco, Catalog No.:11995065) containing 2% FBS (purchased from Gibco, Catalog No.: 16000044) was added. […] Finally, 50 μL of the zika virus strain SZ-SMGC-01 (preserved in Academy of Military Medical Sciences) diluted with DMEM medium containing 2% FBS was added to reach 100 TCID50 for each well. […]
as §8, with “for 2” for “for 5”, “the cell viability” for “the cytotoxicity”
as §9

bunya virus = settings: preliminary test results; Huh7 cells
enterovirus strain CB3 = assay: Anti-enterovirus activity in Vero cells (CellTiter-Glo)
Experimental: (1) Evaluation of anti-enterovirus activity of the drug
1) Vero cells (purchased from ATCC, Catalog No.:CCL-81) were inoculated into a 96 wells plate at a concentration of 1×10^4 cells/well, wherein the medium is DMEM (purchased from Gibco, Catalog No.: 11995065) containing 2% FBS (purchased from Gibco, Catalog No.: 16000044), and cultured for 24 hrs at 37° C. in a CO2 incubator.
as §10, with “Before” for “The culture medium in”, “experiment, the cells were wahsed 3 times with PBS (purchased from Gibco, Catalog No.: 10010049),” for “96-well plate was discarded,”, “enterovirus” for “zika virus”, “CB3” for “SZ-SMGC-01”
as §8, with “After stablizing” for “After stabilizing”, “for 3” for “for 5”, “the cell viability” for “the cytotoxicity”
as §9

EV71 = assay: Anti-enterovirus activity, EV71-RD; settings: Enterovirus A, RD cells
EVD68 = assay: Anti-enterovirus activity, EVD68-RD; settings: RD cells
CA16 = assay: Anti-enterovirus activity, CA16-RD; settings: RD cells
CA6 = assay: Anti-enterovirus activity, CA6-RD; settings: RD cells
Vero cells = assay: Cytotoxicity test of the drug, enterovirus example (CellTiter-Glo); settings: enterovirus table; cell line not given

**Q.** What does the source list for CCn1c(CO)nn(-c2cc(O[C@@H](C)C(F)(F)F)c(C(=O)Nc3c(F)cccc3Cl)cc2F)c1=O [BAY 2402234]?
**A.** inhibition of viral RNA load in the cells ([1]; 24 h after infection by SARS-CoV-2, FIG. 1(a)): can inhibit the viral RNA load; inhibition of viral RNA load in the cells ([1]; 48 h after infection by SARS-CoV-2, FIG. 1(b)): can inhibit the viral RNA load; EC50 ([1]; 24 hours after the infection): 0.007 µM; EC50 ([1]; 48 hours after the infection): 0.0027 µM; inhibition of replication of the SARS-CoV-2 virus genome in the infected supernatant ([1]; at 10 μM, 3.3 μM, 1.1 μM, 0.3 μM, 0.1 μM and 0.03 μM, FIG. 1): could effectively inhibit the replication; CC50 at 48 h [2]: 199 µM; effect on cell viability (cytotoxicity) (Vero E6 cells): did not change the cell viability; EC50 (influenza virus A/PR/8): 0.01 ± 0.0003 µM; EC50 [3]: 0.03 ± 0.009 µM; EC50 [4]: 0.007 µM; EC50 [5]: 0.04 µM; EC50 (influenza virus B/Lee/40): 0.03 µM; CC50 at 72 h [6]: 0.27 µM; inhibitory effect on zika virus [7]: had inhibitory effect; inhibitory effect on bunya virus (bunya virus): had inhibitory effect; EC50 (enterovirus strain CB3; Enterovirus, 120 h, Vero cells, 5 days): < 0.05 µM; inhibitory effect on enterovirus (enterovirus strain CB3; preliminary test results): had inhibitory effect; EC50 (EV71): > 100 µM; EC50 (EVD68): > 100 µM; EC50 (CA16): > 100 µM; EC50 (CA6): > 100 µM; CC50 (Vero cells): > 300 µM
